Consider 1 compound from patent US11617804B2, “Hyaluronic acid-based nanoparticles as biosensors for imaging-guided surgery and drug delivery vehicles and methods associated therewith” (Wake Forest University, priority 2014, dated 2023).

SMILES strings stand for the structures.

One assay has as its system MDA-MB-231 tumors. Put plainly: In vivo testing, MDA-MB-231-iRFP xenograft: imaging, image-guided tumor removal, relative biodistribution. Set-up: species or system female nude mice. The settings on record: I.V. injection of 10 nmol ICG (free or fHNP), 24 hours. As to the method:
Twelve to fourteen week old female nude mice (Jackson Labs) were injected subcutaneously with 2×10^6) MDA-MB-231 cells in 50/50 media/matrigel. MDA-MB-231 cells were transfected with NIR fluorescent protein (iRFP). When the tumors reached 500-1000 mm^3, 10 nmol ICG or fHNP (10 wt % PBA was the hydrophobic ligand in this case) was injected into a tail vein. After 24 hours the mice were euthanized and imaged whole using a LI-COR Pearl Impulse system, which has a “700 nm” channel that can detect iRFP-labeled cell and an “800 nm” channel that can detect ICG or Cy7.5. Mice then underwent image-guided tumor removal with the fluorescence image-guided surgical system method. First, skin was removed to expose the breast tumor xenograft. […] Mice were then re-imaged on the LI-COR system to compare area identified as tumor by the fluorescence image-guided surgical system with iRFP labeled tumors. This was followed by necropsy, further image acquisition for the overall estimation of relative ICG biodistribution, and preparation of tissues for histology.

Another assay deals with ectopic 4T1 breast tumor. Description: ICG detection in tumor with the fluorescence image-guided surgical system. The format is in vivo, mouse. The settings on record: 0.357 mg/kg ICG via tail vein, 24 hours, laser excitation directed at the tumor. As to the method:
In this experiment, 0.357 mg/kg ICG was systemically administered via a tail vein. After 24 hours, the mouse was euthanized and tumor fluorescence enhancement was assessed by using the fluorescence image-guided surgical system method. When the laser excitation source of fluorescence image-guided surgical system method is directed off the tumor (FIG. 9A,B), no fluorescence enhancement of the tumor is seen. […] This example uses a breast tumor model.

In the case of `CC1(C)C(/C=C/C=C/C=C/C=C2\N(CCCCS(=O)(=O)O)c3ccc4ccccc4c3C2(C)C)=[N+](CCCCS(=O)(=O)[O-])c2ccc3ccccc3c21` [ICG, Indocyanine green], the Tumor signal enhancement result with MDA-MB-231 tumors is “tumor signal enhancement”. The Tumor fluorescence enhancement entry in the assay with ectopic 4T1 breast tumor was “strong fluorescence signal”.
